# Laboratory results from patent US12508243B2, “Compositions and methods for treating cancer and improving epithelial homeostasis” (The Regents of the University of California, priority 2019, dated 2025).
# Entries after “also recorded” stand apart in the source; their conditions may differ.
# Tests used:
# mouse ABSCs (mABSCs) [1] = experiment: EdU proliferation assay in mouse ABSCs, submerged culture; assay type: cell-based; conditions: submerged culture 4 days; for mABSC proliferation (EdU incorporation): 1 μM CHIR + 1 μM inhibitor
# Description: Mouse and human ABSCs were isolated following a previously published method. Briefly, mouse tracheas were dissected, cleaned, and incubated in 16 U/mL dispase for 30 minutes (1 hour for human) at room temperature. Tracheas were then incubated in 0.5 mg/mL DNase for another 30 minutes (1 hour for human) at room temperature. Epithelium was stripped and incubated in 0.1% Trypsin-EDTA for 30 minutes (1 hour for human) shaking at 37° C. to generate a single cell suspension. Isolated cells were passed through a 40 μm strainer and stained with fluorophore-conjugated antibodies against ITGA6 and TROP2. ITGA6+ TROP2+ cells were obtained via FACS that was completed using the BD FACSAria cell sorter.
# In vitro proliferation was studied using the Click-iT EdU incorporation assay kit (Invitrogen C10337) following the company's protocol. Briefly, mouse and human AB SC cultures were treated with 10 μM EdU 6-8 hours prior to commencing IFs. Cells were fixed with […] for 15 minutes followed by permeabilization in 0.5% Triton-X for 20 minutes. EdU cocktail was incubated for 30 minutes in darkness followed by immunocytochemistry.
# (§1) To determine whether the pathobiology observed in human patients can be modeled in vitro, mouse ABSCs (mABSCs) were treated with GSK3β inhibitor CHIR99021 (CHIR) under submerged culture conditions for 4 days to activate canonical Wnt signaling (FIG. 2A).
# mouse ABSCs (mABSCs) [2] = experiment: Air-liquid interface (ALI) differentiation assay with mouse ABSCs; assay type: cell-based
# Description: (§2) 24-well 6.5 mm transwells with 0.4 μm pore polyester membrane inserts were coated with 0.2 mg/mL collagen type I dissolved in 60% ethanol and allowed to air dry. ABSCs were seeded at 100,000 cells per well and allowed to grow in the submerged phase of culture for 4-5 days with 500 μl media in the basal chamber and 200 μl media in the apical chamber. ALI cultures were then established and culture with only 500 μl media in the basal chamber, and cultures harvested at varying timepoints for immunofluorescence studies. Media was changed every other day and cultures were maintained at 37° C. and 5% C02. ABSCs were treated with the indicated concentrations of GSK3XV (Sigma 361558), CHIR or WIC1.
# Mouse ABSCs were grown in MTEC Plus media and MTEC serum-free media during the submerged and ALI phases of culture, respectively. MTEC base media is DMEM/Ham's F12 50/50 (Corning 15090CV). Table S1 and Table S2 indicate the media components and concentrations for MTEC Plus and MTEC serum-free media, respectively.
# Mouse and human ABSCs were fixed in […] for 15 minutes followed by permeabilization with 0.50% Triton-X for 10 minutes. Cells were blocked using serum-free protein block (Dako X090930) for one hour at room temperature and overnight primary antibody incubation. Secondary antibodies were incubated for 1 hour in darkness, washed, and mounted using Vectashield hardest mounting medium with DAPI (Vector Labs H-1500). IF images were obtained using an LSM780 or LSM880 Zeiss confocal microscope and composite images generated using Fiji. […]
# human ABSCs = experiment: Air-liquid interface (ALI) differentiation assay with human ABSCs; assay type: cell-based; conditions: human ABSCs, treated for 21 days
# Description: as §2
# (§3) Mouse and human ABSCs were fixed in […] for 15 minutes followed by permeabilization with 0.50% Triton-X for 10 minutes. Cells were blocked using serum-free protein block (Dako X090930) for one hour at room temperature and overnight primary antibody incubation. Secondary antibodies were incubated for 1 hour in darkness, washed, and mounted using Vectashield hardest mounting medium with DAPI (Vector Labs H-1500). IF images were obtained using an LSM780 or LSM880 Zeiss confocal microscope and composite images generated using Fiji.
# To assess whether WIC1 could reverse Wnt/β-catenin-induced ABSC hyperproliferation, human ABSCs were treated with either DMSO, CHIR, or CHIR+WIC1. […] It was then sought to determine if WIC1 could promote ABSC differentiation to ciliated cells under ALI conditions.
# p-β-catenin^Y489 = experiment: Immunofluorescence staining of phosphorylated β-catenin localization in ABSCs; assay type: cell-based, mouse
# Description: as §3, §1
# Trp63 = Trp63 expression with CHIR and WIC1 treatment (FIG. 4F); assay type: cell-based; conditions: CHIR treatment
# Description: (§4) RNA was isolated with the RNeasy Mini Kit (Qiagen 74104) following manufacturer's protocol and quantified using a NanoDrop Spectrophotometer (ThermoFisher). cDNA synthesis was performed using the TaqMan Reverse Transcription Reagents (ThermoFisher) as indicated by the company. qPCR was then performed using the TaqMan PCR Master Mix (Applied Biosystems) on the StepOne-Plus Real Time PCR System.
# TP63 = experiment: qRT-PCR of TP63 expression in BEAS2B cells; assay type: cell-based, human; conditions: addition of CHIR
# Description: as §4
# BEAS2B cells = experiment: Cell Titer Glo toxicity assay in BEAS2B cells; assay type: cell-based, human; conditions: various concentrations
# Description: (§5) For luciferase reporter assays conducted outside of the high-throughput drug screen, BEAS2B cells were seeded in a 96-well plate at 20,000 cells per well. The following day, cells were with treated DMSO, 5 μM CHIR99021 (CHIR; Tocris 4423), or 5 μM CHIR plus WIC2 (Key Organics GP-0355), Coumarin (Sigma C4261), or WIC1 for 24 hours. Lysis reactions were conducted using BrightGlo (Promega E1910) and incubated for two minutes at room temperature prior to transferring luminescence reactions to white-bottom, white-walled 96-well plates (Costar). Toxicity assays were conducted by adding Cell Titer Glo reagent (Promega) following manufacturer's protocol. Luminescence readings were conducted using the Clariostar plate reader.
# [3] = tested on: TCF/LEF luciferase reporter; experiment: TCF/LEF luciferase reporter assay in transduced BEAS2B cells (CHIR-induced); assay type: cell-based, human; conditions: 10 nM, WIC1, MSAB, LF3, ICG001 compared
# Description: BEAS2B cells (ATCC CRL-9609) were seeded in a 6-well plate and infected with Cignal lentiviral particles containing a TCF/LEF luciferase reporter (Qiagen CLS-018L). Cells were spin infected at 37° C. for one hour using a multiplicity of infection of 20. Cells were selected with 0.6 μg/mL puromycin to isolate stably expressing clones.
# as §5
# In light of the finding that Wnt/β-catenin signaling drives ABSC hyperproliferation, a small molecule inhibitors of the pathway that could restore airway homeostasis. A high-throughput drug screen was established to identify compounds capable of reducing TCF/LEF activity measured by a luciferase reporter induced by CHIR treatment in a 384-well format (FIG. 3A). Briefly, white-bottom 384-well plates (Greiner One) were precoated overnight with 0.01 mg/mL fibronectin from human plasma (Sigma F0895), 0.03 mg/mL rat tail collagen type I (Corning 354249), and 0.01 mg/mL BSA (ThermoFisher BP-9706) diluted in 50 uL of Airway Epithelial Cell Growth Medium (PromoCell C21060). Precoat was then aspirated and washed using 100 μL the BioTek EL406. A custom V&P pin tool mounted to a Beckman FX liquid handler was then used to pin […] of 10 mM stock compound. 2,000 BEAS2B cells per well were then seeded using the Multidrop. Cells were therefore treated with 1% DMSO, 5 μM CHIR, or 5 μM CHIR+10 μM pinned compound and incubated for 24 hours at 37° C. and 5% CO2. […] 25 μL BrightGlo (Promega) was subsequently added to each well using the BioTek EL405 and incubated for 2 minutes prior reading luminescence values with the Envision plate reader (FIG. 3B). […] Z′ factor values were used to assess assay quality and was calculated by: Z′=1-3(SD Total+SDBackground)/(MeanTotal−MeanBackground) where SDTotal and MeanTotal are the standard deviation and mean of signal for CHIR-treated wells, and SDBackground and MeanBackground are the standard deviation and mean of signal for DMSO-treated wells. The Z′ factor value was calculated to be 0.82.
# [4] = tested on: TCF/LEF luciferase reporter; experiment: TCF/LEF (TOPFLASH) luciferase reporter in mABSCs; assay type: cell-based, mouse; conditions: vs DMSO-treated cultures
# Description: mABSCs were seeded in a 6-well transwell plate and transiently transfected with […] of the TOPFLASH luciferase reporter and […] Renilla Luciferase reporter vector pRL-TK for internal control (Promega). Transfections were conducted using Lipofectamine 2000 Transfection Reagent (ThermoFisher 11668030) following the manufacturer's protocol.
# as §1
# [5] = mABSCs, ALI, GSK3β inhibitor vs DMSO
# [6] = mABSCs, ALI, 100 nM inhibitor vs DMSO
# [7] = mABSCs, ALI, 1 μM inhibitor vs DMSO
molecule,measurement,setting,value
"Cc1c[nH]c(-c2cnc(NCCNc3ccc(C#N)cn3)nc2-c2ccc(Cl)cc2Cl)n1 [CHIR, CHIR99021]",mABSC proliferation (EdU),mouse ABSCs (mABSCs) [1]; compound alone vs DMSO,statistically significant increase in proliferation; also recorded: statistically significant increased proliferation
same,Percentage of ciliated cells,mouse ABSCs (mABSCs) [2]; [5],significant reduction in the percentage of ciliated cells
same,Pool of K5+ mABSCs,mouse ABSCs (mABSCs) [2]; [5],increased pool of K5+ mABSCs
same,ABSC morphology,"mouse ABSCs (mABSCs) [2]; mABSCs, ALI, vs DMSO",clumping morphology reminiscent of PMLs; also recorded: dose-dependent heaping morphology that resembles the PMLs
same,Differentiation to the ciliated cell fate,human ABSCs,abolished differentiation to the cilated cell fate
same,Pool of ABSCs,human ABSCs,increased pool for ABSCs
same,Nuclear p-β-catenin^Y489,p-β-catenin^Y489; compound alone vs DMSO,increase in nuclear p-β-cateninY489; also recorded: increased nuclear p-β-catenin^Y489; also recorded: induced nuclear localization of p-β-catenin^Y489
same,"Localization of other phosphorylated forms of β-catenin (Y654, S552, S33,S37,T41)","p-β-catenin^Y489; mouse ABSCs, submerged phase of culture",remained primarily cytoplasmic or membranous
same,Trp63 expression,Trp63,induction of Trp63 expression
same,TP63 expression,TP63,increase in TP63 expression
O=C1[C@H](Cc2ccc(O)cc2)N2C(=O)CCN(C(=O)NCc3ccccc3)[C@H]2CN1Cc1cccc2ccccc12 [ICG001],Toxicity by Cell Titer Glo,BEAS2B cells,dose dependent toxicity
same,mABSC proliferation (EdU incorporation),mouse ABSCs (mABSCs) [1],decreased mABSC proliferation to a similar degree
same,Proportion of ciliated cells,mouse ABSCs (mABSCs) [2]; [6],induced a greater proportion of ciliated cells
same,Percentage of ciliated cells,mouse ABSCs (mABSCs) [2]; [7],no effect on the percentage of ciliated cells
COC(=O)c1cccc(NS(=O)(=O)c2ccc(C)cc2)c1 [MSAB],"TCF/LEF activity, inhibitor comparison",[3],only inhibitor that decreased TCF/LEF activity at 10 nM
same,Toxicity by Cell Titer Glo,BEAS2B cells,dose dependent toxicity
same,mABSC proliferation (EdU incorporation),mouse ABSCs (mABSCs) [1],decreased mABSC proliferation to a similar degree
same,Proportion of ciliated cells,mouse ABSCs (mABSCs) [2]; [6],neither 100 nM nor 1 μM MSAB increased differentiation to the ciliated cell fate
same,Percentage of ciliated cells,mouse ABSCs (mABSCs) [2]; [7],neither 100 nM nor 1 μM MSAB increased differentiation to the ciliated cell fate
"Wnt3A: recombinant Wnt3A protein used to raise Wnt signaling (protein, UniProt P56704 19-352, looked up) Protein Wnt-3a: SYPIWWSLAVGPQYSSLGSQPILCASIPGLVPKQLRFCRNYVEIMPSVAEGIKIGIQECQHQFRGRRWNCTTVHDSLAIFGPVLDKATRESAFVHAIASAGVAFAVTRSCAEGTAAICGCSSRHQGSPGKGWKWGGCSEDIEFGGMVSREFADARENRPDARSAMNRHNNEAGRQAIASHMHLKCKCHGLSGSCEVKTCWWSQPDFRAIGDFLKDKYDSASEMVVEKHRESRGWVETLRPRYTYFKVPTERDLVYYEASPNFCEPNPETGSFGTRDRTCNVSSHGIDGCDLLCCGRGHNARAERRREKCRCVFHWCCYVSCQECTRVYDVHTCK",Proportion of ciliated cells,"mouse ABSCs (mABSCs) [2]; ALI conditions, 100 ng/mL",increased the proportion of ciliated cells
same,K5+ mABSCs,"mouse ABSCs (mABSCs) [2]; ALI conditions, 500 ng/mL",K5+ mABSC expansion
same,Proportion of ciliated cells,"mouse ABSCs (mABSCs) [2]; ALI conditions, 500 ng/mL",produced fewer ciliated cells
same,TCF/LEF activity measured by a luciferase reporter,[4],increased TCF/LEF activity
